One data set deals with kaolin oedema. Put plainly: Kaolin oedema inhibition. Type of data set: in vivo. Conditions: 1 mg/kg p.o., one hour before kaolin, male rats, vs untreated control. The protocol:
(§1) The 2-phenyl-2-carboxyethyl 1-(p-chlorobenzoyl)-5-methoxy-2-methyl-3-indolylacetate prepared in accordance with the invention was evaluated by comparison with 1-(p-chlorobenzoyl-5-methoxy-2-methyl-3-indolylacetic acid), the widely-used anti-inflammatory substance indomethacin. The two compounds were compared upon oral administration of their aqueous suspensions, with the addition of gum arabic, into the stomachs of test animals using a flexible metallic probe.
(§2) Anti-inflammatory activity was evaluated on kaolin oedema, carrageenin oedema and Freund adjuvant disease as standard model inflammatory syndromes in a group of six male rats.
The kaolin oedema of an extremity (J. Hillebrecht, Arzneim.-Forsch. 9, 625 (1969)) was produced in male rats weighing 130-150 grams by subplanatary injection of a 10% aqueous suspension of kaolin (0.1 ml). The indolylacetate of the invention and indomethacin were administered one hour before the injection of the suspension. The oedema size was measured 30 minutes, 3, 4.5 and 6 hours after the injection. The activity is conveniently expressed in percent of rate of inhibition in comparison with the untreated control group, the results being summarized in Table II below.

Data set [1] is described as follows: Acute oral toxicity in mice. Conditions: mouse, in vivo, single dose, female mice, 10 days, limits after the slash. The method, then: as §1
(§3) Acute toxicity was determined by administering both compounds in a single dose to female mice weighing 16-20 grams (groups of ten) and female rats weighing 130-150 grams (groups of ten). The mortality rate was followed for 10 days after administration of the dosage. The median lethal doses, LD50, are set forth in Table I below and were calculated by the method of J. Berkson, J. Am. Stat. Assoc. 50, 529, (1955).

In a further data set the test system is carrageenin oedema. Put plainly: Carrageenin oedema inhibition. Type of data set: in vivo. The conditions noted are these: 1.5 mg/kg p.o., male rats, vs untreated control. The protocol: as §1, §2
The carrageenin oedema (Ch. Winter, Proc. Soc. Exp. Biol. Med. 111, 544 (1962)) was produced in male rats weighing 130-150 grams by subplanatary injection of a 0.5% carrageenin solution (0.1 ml). The dosage schedule and assay procedure as well as the results were identical with those described above for the kaolin oedema inhibition test.

In the next data set the test system is mice. Briefly: Analgesic activity, intraperitoneal irritation test with 3% acetic acid. Type of data set: in vivo, female mice. Conditions: Mus musculus, read-out: ED50 (analgesic activity). The method, then: as §1
Analgesic activity was evaluated by the intraperitoneal irritation test with 3% acetic acid (L. B. Wilkin et al., J. Pharm. 133, 400 (1961)) in female mice weighing 16-20 grams (groups of 12 animals).

Data set [2] in a line: Acute oral toxicity in rats. The conditions noted are these: rat, in vivo, single dose, female rats, 10 days, limits after the slash. The protocol:
as §1, §3

A further data set relates to gastric mucosa. Type of data set: in vivo. Conditions: 8 mg/kg oral, starving female rats. The method, then: as §1
Gastrotoxicity (adversary effect on gastric mucosa, A. Robert, J. E. Nezamis, Proc. Soc. Exp. Biol. Med. 99, 443 (1958)) was monitored by oral administration of the compounds being compared by testing starving female rats of 250-300 grams body weight (group of six animals). The evaluation was made by estimating the frequency of gastric erosions and ulcers. The relative gastrotoxicity of the two compounds is expressed by the respective standard criteria, ulceration index, as indicated in Table IV below.

Where two headings read alike, the source gives them in different places.

Broadly, the LD50 is the dose expected to kill half of the subjects tested. Read a high LD50 as lower toxicity. As a reminder, the ED50 is the dose that gives a 50% effect, or the effect in half of the subjects. In turn, `COc1ccc2c(c1)c(CC(=O)OCC(C(=O)O)c1ccccc1)c(C)n2C(=O)c1ccc(Cl)cc1` (centres unmarked) [Compound of Invention, 2-phenyl-2-carboxyethyl 1-(p-chlorobenzoyl)-5-methoxy-2-methyl-3-indolylacetate] showed a Kaolin oedema inhibition in the data set with kaolin oedema of 16%. The LD50 at 240 h in data set [1] was 190 mg/kg; in data set [2], 140 mg/kg. Besides, in the data set on carrageenin oedema, the Carrageenin oedema inhibition worked out at 15%. Also, in the data set on mice (oral, female mice, 3% acetic acid i.p.), the ED50 was 24.5 mg/kg.

For `COc1ccc2c(c1)c(CC(=O)O)c(C)n2C(=O)c1ccc(Cl)cc1` [Indomethacin, 1-(p-chlorobenzoyl)-5-methoxy-2-methyl-3-indolylacetic acid], in the data set on kaolin oedema, the Kaolin oedema inhibition was determined as 19%. Further, the LD50 at 240 h stood at 18 mg/kg in data set [1] and 25 mg/kg in data set [2]. The compound further yielded a Carrageenin oedema inhibition in the data set on carrageenin oedema of 14%. In addition, the “Ulceration Index” value with gastric mucosa was found to be 300. Moreover, the ED50 in the data set on mice (po) is 14.5 mg/kg.

(Values after US4136194A, “2-Phenyl-2-carboxyethyl 1-(p-chlorobenzoyl)-5-methoxy-2-methyl-3-indolylacetate and process for preparation thereof” (SPOFA, United Pharmaceutical Works, priority 1976, dated 1979).)
